4 molecules from patent US10548877B2, “Aromatic ring compound” (TAKEDA PHARMACEUTICAL COMPANY LIMITED, priority 2016, dated 2020) can be followed below.

This test has as its target T1, human M1 receptor (hCHRM1) (Homo sapiens, UniProt P11229).
T1 construct: expressed in transfected cells
T1 sequence (P11229 1-460): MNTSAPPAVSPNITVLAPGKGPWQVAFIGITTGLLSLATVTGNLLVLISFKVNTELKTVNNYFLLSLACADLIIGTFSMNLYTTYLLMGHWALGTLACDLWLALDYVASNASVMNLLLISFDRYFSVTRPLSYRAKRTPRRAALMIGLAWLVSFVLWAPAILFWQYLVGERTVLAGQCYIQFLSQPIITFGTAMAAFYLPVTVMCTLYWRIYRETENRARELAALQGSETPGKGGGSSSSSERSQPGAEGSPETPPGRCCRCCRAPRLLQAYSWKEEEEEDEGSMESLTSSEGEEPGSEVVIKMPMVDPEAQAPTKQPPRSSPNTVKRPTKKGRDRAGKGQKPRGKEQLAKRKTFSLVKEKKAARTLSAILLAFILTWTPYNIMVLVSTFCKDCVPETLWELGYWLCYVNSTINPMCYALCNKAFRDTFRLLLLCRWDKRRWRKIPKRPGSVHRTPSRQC
The test is described as follows: Measurement of M1 receptor positive allosteric modulator (M1PAM) activity (calcium fluorescence, Fluo-4). It is filed as cell-based. Conditions: for pEC50: inflection point of concentration-dependent curve, CHO-K1 cells stably expressing hCHRM1, in presence of acetylcholine at EC20 (final 0.8-1.0 nM), read-out: IP value; for activity (%) at 10 μM: test compound 10 μM with acetylcholine at EC20, 100% = 1 μM acetylcholine, 0% = DMSO, CHO-K1 cells expressing hCHRM1. As for the experimental part: Measurement of M1 Receptor Positive Allosteric Modulator (M1PAM) Activity
The activity of a test compound in the presence of acetylcholine at EC20 concentration (final concentration 0.8-1.0 nM), which affords an action corresponding to about 20% of the maximum activity, was measured as PAM activity. The method is as follows. CHO-K1 cells stably expressing a human M1 receptor (hCHRM1) were plated on a 384-well black clear bottom plate (BD Falcon) at 5,000 cells/well, and cultured in an incubator at 37° C., 5% CO2 for 1 day. The medium in the cell plate was removed, and assay buffer A containing a calcium indicator (Recording medium (DOJINDO LABORATORIES), 0.1% BSA (Wako Pure Chemical Industries, Ltd.), 2.5 μg/mL Fluo-4 AM (DOJINDO LABORATORIES), 0.08% Pluronic F127 (DOJINDO LABORATORIES) and 1.25 mM probenecid (DOJINDO LABORATORIES) were added at 30 μL/well. The cells were left standing in the incubator at 37° C., 5% CO2 for 30 min, and further left standing at room temperature for 30 min. A test compound prepared by diluting with assay buffer B (HBSS (Invitrogen), 20 mM HEPES (Invitrogen), 0.1% BSA) containing 3.2-4.0 nM acetylcholine was added at 10 μL/well, and the fluorescence was measured by FDSS/pcell (Hamamatsu Photonics K.K.) for 1 min every for 1 second. With the definition that the amount of change in the fluorescence on addition of acetylcholine (final concentration 1 μM) is 100% and that on addition of DMSO instead of a test compound is 0%, the activity (%) of the test compound was calculated, and the inflection point in the concentration-dependent curve of the test compound was calculated as IP values.

pEC50: −log10 of the molar value.

On to `COc1c(C(=O)N[C@H]2CCCC[C@@H]2O)cc(Cc2ccc(-c3cn(C)nn3)cc2)c(C)c1C` (single isomer, unassigned) [Example 10, N-(trans-2-hydroxycyclohexyl)-2-methoxy-3,4-dimethyl-5-(4-(1-methyl-1H-1,2,3-triazol-4-yl)benzyl)benzamide], for which the pEC50 is 8.32 and the “activity (%) at 10 μM” value came out at 106%.
Take `COc1c(C(=O)N[C@H]2COCC[C@@H]2O)cc(Cc2ccc(-c3cn(C)nc3C)nc2)c(C)c1C` [Example 28, 1,5-anhydro-2,4-dideoxy-2-((5-((6-(1,3-dimethyl-1H-pyrazol-4-yl)pyridin-3-yl)methyl)-2-methoxy-3,4-dimethylbenzoyl)amino)-L-threo-pentitol]: the pEC50 is 7.70 and the “activity (%) at 10 μM” value was 100%.
Consider `COc1c(C(=O)N[C@H]2CCOC[C@@H]2O)cc(Cc2ccc(-c3cn(C)nn3)cc2)c(C)c1C` [Example 24, 1,5-anhydro-2,3-dideoxy-3-((2-methoxy-3,4-dimethyl-5-(4-(1-methyl-1H-1,2,3-triazol-4-yl)benzyl)benzoyl)amino)-L-threo-pentitol], for which the pEC50 was 8.59 and the “activity (%) at 10 μM” value was determined as 95%.
For the molecule `Cc1c(Cc2ccc(-n3cccn3)nc2)cc(C(=O)N[C@H]2CCCC[C@@H]2O)c(F)c1C` [Example 20, 2-fluoro-N-((1S,2S)-2-hydroxycyclohexyl)-3,4-dimethyl-5-((6-(1H-pyrazol-1-yl)pyridin-3-yl)methyl)benzamide], the pEC50 was 7.51 and the “activity (%) at 10 μM” value is given as 97%.
